The values that follow come from ChEMBL document CHEMBL1142215, “Site-specific reduction of oxidative and lipid metabolism in adipose tissue of 3'-azido-3'-deoxythymidine-treated rats” (2007).

Calls of active or inactive are those of the source. No cut-off for these calls is given here.

The target of assay [1] is Fatty acid synthase (Rattus norvegicus) (UniProt P12785). Briefly: Decrease in fatty acid synthase activity in lean Wistar rat inguinal adipose tissue assessed at 70 mg/kg/day by DNA quantification assay. The format is organism-based.
Chain of Fatty acid synthase (Rattus norvegicus) (P12785 whole entry): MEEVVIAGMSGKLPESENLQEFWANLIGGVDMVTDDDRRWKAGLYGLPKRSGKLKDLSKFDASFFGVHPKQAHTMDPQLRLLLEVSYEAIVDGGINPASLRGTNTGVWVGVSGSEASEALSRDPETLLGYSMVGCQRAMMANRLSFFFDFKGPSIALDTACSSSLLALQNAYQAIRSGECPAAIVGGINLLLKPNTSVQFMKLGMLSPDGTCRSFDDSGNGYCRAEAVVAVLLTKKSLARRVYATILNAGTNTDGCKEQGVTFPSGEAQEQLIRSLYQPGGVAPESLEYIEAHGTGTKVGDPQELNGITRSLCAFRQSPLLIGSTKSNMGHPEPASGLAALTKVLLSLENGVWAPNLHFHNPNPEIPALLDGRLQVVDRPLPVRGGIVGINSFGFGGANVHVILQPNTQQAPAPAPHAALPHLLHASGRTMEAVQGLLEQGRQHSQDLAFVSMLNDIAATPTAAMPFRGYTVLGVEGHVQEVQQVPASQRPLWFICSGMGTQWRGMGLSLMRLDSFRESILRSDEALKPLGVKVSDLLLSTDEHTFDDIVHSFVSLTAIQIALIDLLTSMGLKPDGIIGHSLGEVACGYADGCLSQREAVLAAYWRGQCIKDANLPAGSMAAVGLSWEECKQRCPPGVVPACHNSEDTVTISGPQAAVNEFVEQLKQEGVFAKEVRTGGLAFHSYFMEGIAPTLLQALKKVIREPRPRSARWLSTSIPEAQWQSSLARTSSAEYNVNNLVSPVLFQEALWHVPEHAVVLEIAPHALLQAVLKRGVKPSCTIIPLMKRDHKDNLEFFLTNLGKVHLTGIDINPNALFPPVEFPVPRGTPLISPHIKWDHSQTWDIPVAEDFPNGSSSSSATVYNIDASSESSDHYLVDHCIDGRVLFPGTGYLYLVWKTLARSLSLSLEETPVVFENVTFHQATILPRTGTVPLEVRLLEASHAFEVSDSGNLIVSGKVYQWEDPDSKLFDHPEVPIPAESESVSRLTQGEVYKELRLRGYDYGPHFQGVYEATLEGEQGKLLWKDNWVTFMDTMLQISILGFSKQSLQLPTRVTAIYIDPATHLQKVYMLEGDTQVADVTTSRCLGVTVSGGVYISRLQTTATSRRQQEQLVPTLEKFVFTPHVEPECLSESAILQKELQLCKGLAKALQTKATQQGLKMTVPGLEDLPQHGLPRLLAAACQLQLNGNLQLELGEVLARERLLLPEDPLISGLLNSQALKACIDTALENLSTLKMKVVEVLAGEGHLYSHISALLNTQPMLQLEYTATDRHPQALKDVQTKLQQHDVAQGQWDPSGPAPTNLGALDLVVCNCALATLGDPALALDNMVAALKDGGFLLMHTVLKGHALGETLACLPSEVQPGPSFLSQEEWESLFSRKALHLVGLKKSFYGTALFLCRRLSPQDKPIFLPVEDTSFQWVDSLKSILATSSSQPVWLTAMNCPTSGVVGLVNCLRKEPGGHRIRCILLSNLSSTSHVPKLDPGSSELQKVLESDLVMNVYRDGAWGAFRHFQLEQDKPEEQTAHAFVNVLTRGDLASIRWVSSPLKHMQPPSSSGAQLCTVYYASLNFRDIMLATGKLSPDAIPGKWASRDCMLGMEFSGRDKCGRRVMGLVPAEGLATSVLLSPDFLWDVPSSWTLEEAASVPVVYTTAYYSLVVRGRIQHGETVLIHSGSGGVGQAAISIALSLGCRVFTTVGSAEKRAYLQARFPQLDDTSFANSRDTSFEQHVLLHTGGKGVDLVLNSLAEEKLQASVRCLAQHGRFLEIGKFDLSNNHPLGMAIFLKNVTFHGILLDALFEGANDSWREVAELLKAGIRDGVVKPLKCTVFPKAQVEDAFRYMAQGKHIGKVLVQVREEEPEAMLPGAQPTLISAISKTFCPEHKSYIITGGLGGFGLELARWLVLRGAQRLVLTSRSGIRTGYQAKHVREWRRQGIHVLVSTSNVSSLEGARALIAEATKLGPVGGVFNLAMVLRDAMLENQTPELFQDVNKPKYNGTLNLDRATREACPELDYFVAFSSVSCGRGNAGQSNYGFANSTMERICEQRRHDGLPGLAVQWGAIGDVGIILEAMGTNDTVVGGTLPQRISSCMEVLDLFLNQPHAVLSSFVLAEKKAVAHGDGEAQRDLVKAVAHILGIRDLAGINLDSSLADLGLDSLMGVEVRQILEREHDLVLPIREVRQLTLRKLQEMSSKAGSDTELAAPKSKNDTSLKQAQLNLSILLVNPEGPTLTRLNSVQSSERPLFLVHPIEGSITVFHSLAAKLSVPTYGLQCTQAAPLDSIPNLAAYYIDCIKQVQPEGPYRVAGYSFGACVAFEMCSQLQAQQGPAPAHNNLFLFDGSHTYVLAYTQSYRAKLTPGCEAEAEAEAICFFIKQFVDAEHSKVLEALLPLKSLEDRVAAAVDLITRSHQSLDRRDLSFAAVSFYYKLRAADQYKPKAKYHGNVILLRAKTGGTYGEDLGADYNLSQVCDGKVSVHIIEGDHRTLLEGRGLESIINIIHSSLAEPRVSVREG
Assay [2] concerns Rattus norvegicus. Briefly: Increase in AMPK phosphorylation level in rat inguinal adipose cells at 70 mg/kg/day. The format is organism-based.
Assay [3] has as its target Fatty acid synthase (Rattus norvegicus) (UniProt P12785). Briefly: Decrease in fatty acid synthase activity in Wistar cafteria-fed rat inguinal adipose tissue at 70 mg/kg/day by DNA quantification assay. The format is organism-based.
The test system of assay [4] is Rattus norvegicus. Briefly: Effect on LDL cholesterol level in cafteria-fed Wistar rat at 70 mg/kg/day relative to control. The format is functional.
Assay [5] concerns Rattus norvegicus. Briefly: Increase in cellularity in cafteria-fed Wistar rat inguinal tissue assessed as DNA content at 70 mg/kg/day. The format is functional.
In assay [6] the test system is Rattus norvegicus. Briefly: Effect on HDL cholesterol level in cafteria-fed Wistar rat at 70 mg/kg/day relative to control. The format is functional.
In assay [7] the test system is Rattus norvegicus. Put plainly: Effect on AMPK phosphorylation level in rat epididymal adipose cell at 70 mg/kg/day. The format is organism-based.
The test system of assay [8] is Rattus norvegicus. Briefly: Increase in triglyceride level in cafteria-fed Wistar rat at 70 mg/kg/day relative to control. The format is functional.
The subject of assay [9] is Rattus norvegicus. Briefly: Increase in body weight in lean Wistar rat at 70 mg/kg/day after 4 weeks. The format is functional.
The subject of assay [10] is Rattus norvegicus. Briefly: Decrease in inguinal adipocyte size in cafteria-fed Wistar rat at 70 mg/kg/day. The format is functional.
The subject of assay [11] is Rattus norvegicus. Put plainly: Effect on LDL cholesterol level in lean Wistar rat at 70 mg/kg/day relative to control. The format is functional.
Assay [12] has as its system Rattus norvegicus. Put plainly: Decrease in cytochrome c oxidase activity in lean Wistar rat inguinal adipose tissue at 70 mg/kg/day by DNA quantification assay. The format is organism-based.
Assay [13] concerns the target Fatty acid synthase (Rattus norvegicus) (UniProt P12785). Briefly: Decrease in fatty acid synthase activity in lean Wistar rat epididymal adipose tissue assessed at 70 mg/kg/day by DNA quantification assay. The format is organism-based.
Assay [14] has as its system Rattus norvegicus. Briefly: Increase in body weight in cafteria-fed Wistar rat at 70 mg/kg/day after 4 weeks. The format is functional.
The subject of assay [15] is Rattus norvegicus. Briefly: Decrease in cytochrome c oxidase activity in cafteria-fed Wistar rat inguinal adipose tissue at 70 mg/kg/day by DNA quantification assay. The format is organism-based.
Assay [16] deals with Rattus norvegicus. Put plainly: Increase in triglyceride level in lean Wistar rat at 70 mg/kg/day relative to control. The format is functional.
Assay [17] relates to Rattus norvegicus. Put plainly: Effect on HDL cholesterol level in lean Wistar rat at 70 mg/kg/day relative to control. The format is functional.
Assay [18] deals with Fatty acid synthase (Rattus norvegicus) (UniProt P12785). Put plainly: Decrease in fatty acid synthase activity in Wistar cafteria-fed rat epididymal adipose tissue at 70 mg/kg/day by DNA quantification assay. The format is organism-based.
Assay [19] has as its system Rattus norvegicus. Put plainly: Decrease in epididymal adipocyte size in cafteria-fed Wistar rat at 70 mg/kg/day. The format is functional, organism-based.

On to `Cc1cn([C@H]2C[C@H](N=[N+]=[N-])[C@@H](CO)O2)c(=O)[nH]c1=O` [ZIDOVUDINE], for which the Activity in assay [1] amounted to 0.72 U/mg; in assay [3] it was 0.55 U/mg; in the assay with Rattus norvegicus [4], 0.6 mM; in the assay on Rattus norvegicus [5] it was 625 µg; in the assay with Rattus norvegicus [6] it was 0.32 mM; in the assay on Rattus norvegicus [8], 1.96 mM. Besides, the Activity was 401 g with Rattus norvegicus [9]; 2082 um2 in the assay on Rattus norvegicus [10]; 0.27 mM in the assay on Rattus norvegicus [11]; 6.61 U/mg with Rattus norvegicus [12]; 443 g in the assay with Rattus norvegicus [14]; 6.43 U/mg with Rattus norvegicus [15]. The Activity in the assay with Rattus norvegicus [16] was found to be 2.11 mM; in the assay on Rattus norvegicus [17], 0.43 mM. In addition, the result in the assay with Rattus norvegicus [2] and in the assay on Rattus norvegicus [7] was Active. Further, the outcome (in [13]; in assay [18]; in the assay with Rattus norvegicus [19]) was inactive.
